Converted amounts (≈) assume the structure as drawn. “Also recorded” adds a separate entry of the source. Read-outs that look alike come from different tables or passages of the source.
Columns and labels:
HIV-2ROD = assay: Syncytia assay (CPE inhibition), HIV-2ROD in C8166 cells; type: cell-based
Description: (§1) In the presence of 100 μL of various concentrations of the tested compound, C8166 cells (4 × 10^5cells/mL) were infected with virus (HIV-1IIIB, HIV-2CBL-20 or HIV-2ROD) at a multiplicity of infection (M.O.I.) of 0.06. The final volume per well was 200 μL. Control assays were performed without the testing compounds in HIV-1 IIIB infected and uninfected cultures. AZT was included as positive control. After three days of culture, the cytopathic effect (CPE) was measured by counting the number of syncytia in each well under an inverted microscope. EC50 was then calculated.

C8166 = assay: MTT-based cytotoxicity assay, C8166; type: cell-based; conditions: C8166, MTT
Description: (§2) Cellular toxicity of compounds 1–3 was assessed by the MTT method, as described previously. Briefly, cells were seeded on a microtiter plate in the absence or presence of various concentrations of compounds in triplicate and incubated at 37 °C in a humid atmosphere of 5% CO2 for three days. Twenty microliters of MTT reagent (5 mg/mL in PBS) was added to each well, then incubated at 37 °C for 4 h. One hundred microliters of 50% DMF-20% SDS was then added. After the formazan was dissolved completely, the plates were read on a Bio-Tek ELx 800 ELISA reader at 595 nm/630 nm. The results were shown as absorbance values, and the CC50 was calculated.

[1] = MTT-based cytotoxicity assay, C8166; type: cell-based; conditions: human
Description: as §2

HIV = system: HIV; set-up: method as in PMID 11725078; conditions: cited from earlier work
HIV-2CBL-20 = assay: Syncytia assay (CPE inhibition), HIV-2CBL-20 in C8166 cells; type: cell-based
Description: as §1

equine anemia virus = system: equine anemia virus; set-up: method as in PMID 11725078; conditions: cited from earlier work
[2] = MTT-based cytotoxicity assay, PBMC; type: cell-based; conditions: human
Description: (§3) Cell lines (C8166, H9, H9/HIV-1IIIB, Jurkat, Jurkat/HIV-1IIIB) were maintained in RPMI-1640 supplemented with 10% heat-inactivated newborn calf serum (Gibco, Auckland, New Zealand). The cells used in all experiments were in log-phase growth. PBMC from healthy donors were isolated by Ficoll-Hypaque centrifugation, then incubated in complete medium containing 5μg/mL phytohemagglutinin (PHA) (Sigma) and 50 U/mL human recombinant IL-2 for 72 h prior to use for antiviral assays. The laboratory-derived viruses (HIV-1IIIB, HIV-2ROD, HIV-2CBL-20) were obtained from the Medical Research Council (MRC), AIDS Reagent Project (UK) and the NIH AIDS Research and Reference Reagent Program (USA). The clinically isolated HIV-1KM018 was obtained from a naive HIV-1-infected individual in Yunnan Province, China, as described. The 50% HIV-1 tissue culture infectious dose (TCID50) was determined and calculated by the Reed and Muench method. Virus stocks were stored in aliquots at −70 °C.
as §2

HIV-1KM018 = assay: Inhibition of HIV-1 p24 antigen production in PBMC; type: cell-based
Description: Adequate numbers of PHA activated normal PBMC were incubated with HIV-1KM018 (M.O.I. = 0.03) in presence of varying concentrations of the compound. After 3 h of virus adsorption, the cells were washed twice with PBS and incubated with or without various concentration of compound in culture medium supplemented with 50 U/mL human recombinant IL-2 at 1.2 × 10^6 cells/mL for seven days. Half of the medium was changed with corresponding compound concentrations on the third day. At seven days post-infection, HIV-1 p24 antigen in cell-free culture supernatants was analyzed by ELSIA. The percent inhibition of HIV-1 p24 antigen production in PBMC was calculated.

HIV-1IIIB = assay: Syncytia assay (CPE inhibition), HIV-1IIIB in C8166 cells; type: cell-based
Description: as §1

[3] = MTT-based cytotoxicity assay, Jurkat/HIV-1IIIB; type: cell-based; conditions: human, Jurkat/HIV-1IIIB cells
Description: as §2

[4] = target: T1, HIV-1 reverse transcriptase (Human immunodeficiency virus type 1 group M subtype B, UniProt P04585); assay: Inhibition assay of recombinant HIV-1 RT activity (ELISA); type: biochemical
T1 construct: purchased Roche, Mannheim, Germany
Description: HIV-1 reverse transcriptase (RT) activity was measured by the ELISA RT kit using a commercially available kit (Roche, Mannheim, Germany) according to the instructions of the manufacturer. The compounds were incubated with DIG-labeled reaction mixture at 37 °C for 2 h, then anti-DIG-POD solution was added, followed by substrate ABTS. Foscarnet was used as a positive control. The absorbency at 405 nm/490 nm was read on the Bio-Tek ELx 800 ELISA reader.

H9/HIV-1IIIB [5] = assay: ELISA in chronically infected H9/HIV-1IIIB cells; type: cell-based; conditions: Human immunodeficiency virus 1
Description: Chronically infected cell with HIV-1IIIB (H9/HIV-1IIIB) were washed three times with PBS to remove free virus particle. 200 µL/well (3 × 10^5 cells/mL) of the cell suspension was cultured for three days in a 96-well culture plate with different concentrations of compound. The p24 antigen in the culture supernatants was assayed by ELISA.

HIV-1IIIB/H9 = assay: Co-cultivation assay (cell-to-cell fusion C8166 with H9/HIV-1IIIB); type: cell-based
Description: Cell-to-cell fusion between normal C8166 cells and H9 cells chronically infected withHIV-1IIIB was quantified under an inverted microscope. First, 3 × 10^4 C8166 cells co-cultured with 1 × 10^4 H9/HIV-1IIIB cells in the presence or absence of the compound at varying concentrations. They were incubated at 37 °C in a humidified atmosphere of 5% CO2. Dextran sulfate (DS) was used as positive control. After 6 h incubation, the number of syncytia was scored under an inverted microscope.

HIV-1 integrase = target: T2, HIV-1 integrase (Human immunodeficiency virus type 1 group M subtype B, UniProt P04585); assay: Binding to HIV-1 integrase by SPR (BIAcore)
T2 construct: Integrase was immobilized on the surface of the chip
Description: The interaction between the compound and HIV-1 integrase (IN) was determined by SPR using a BIAcore 3000TM biosensor system as previously described. Integrase was immobilized on the surface of the chip. To allow association, various concentrations of the compound diluted in HBS-EP was applied to a chip containing immobilized integrase. Dissociation of the compound from the integrase was monitored in real-time after application of buffer to wash the chip and the kinetic rate constants for dissociation (Kd) was obtained by fitting the real-time data using BIA evaluation software.

HIV-1 protease = target: T3, HIV-1 protease (Human immunodeficiency virus type 1 group M subtype B, UniProt P04585); assay: Inhibition assay of recombinant HIV-1 protease activity (fluorescent); type: biochemical
T3 construct: The recombinant HIV-1 protease (PR) was expressed and purified, as previously described; made in house
Description: The recombinant HIV-1 protease (PR) was expressed and purified, as previously described. HIV-1 PR was diluted in reaction buffer. The compounds were added and incubated for 30 min at room temperature. Fluorescent substrate DABCYL-γ-Abu-Ser-Gln-Asn-Tyr-Pro-Ile-Val-Gln-EDANS (Anaspec, San Jose, USA) was added to initiate the reaction. The mixture was allowed to react for 90 min and the change of the fluorescent signal was monitored. Negative (double distilled water) and positive (1 μM indinavir) controls were included. The percent inhibition of PR activity was calculated.

H9/HIV-1IIIB [6] = assay: MTT-based cytotoxicity assay, H9/HIV-1IIIB; type: cell-based; conditions: 3 days of incubation; listed as 7-Hydroxymethyl-CPT
Description: as §2

[7] = MTT-based cytotoxicity assay, H9/HIV-1IIIB; type: cell-based; conditions: human, H9/HIV-1IIIB cells; H9/HIV-1IIIB, MTT, 3 days
Description: as §2

[8] = set-up: method as in PMID 12775425; conditions: cited from earlier work
HIV-1 [9] = system: HIV-1; set-up: method as in PMID 11424110; conditions: by inducing selective apoptosis of HIV infected cells; cited from earlier work
HIV-1 [10] = system: HIV-1; set-up: method as in PMID 9453250; conditions: latently infected T cell clone; cited from earlier work
HIV-1 [11] = conditions: freshly infected U937 monocytoid cells; cited from earlier work
PBMC = assay: MTT-based cytotoxicity assay, PBMC; type: cell-based; conditions: PBMC, MTT
Description: as §3, §2

[12] = Human immunodeficiency virus 2, 72 h, C8166, HIV-2ROD, syncytia, 3 days, read-out: EC50
[13] = Human immunodeficiency virus 2, 72 h, C8166, HIV-2CBL-20, syncytia, 3 days, read-out: EC50
[14] = Human immunodeficiency virus 1, 168 h, PBMC, HIV-1KM018, p24, 7 days, read-out: EC50
[15] = Human immunodeficiency virus 1, 72 h, C8166, HIV-1IIIB, syncytia, 3 days, read-out: EC50
[16] = Human immunodeficiency virus 2, C8166, 72 h
[17] = cell-free system, in words, listed as 7-hydroxymethyl-CPT

CC[C@@]1(O)C(=O)OCc2c1cc1n(c2=O)Cc2cc3ccccc3nc2-1 [Compound 1, Camptothecin]
EC50 (HIV-2ROD; [12]): 0.0067 ± 0.0001 µg/mL (≈ 0.0192 µM)
CC50 (C8166; 3 days): 137.8 ± 7.8 ng/mL (≈ 0.396 µM)
CC50 at 3 days ([1]; C8166 cells, C8166, MTT, 3 days, read-out: CC50): 0.138 µg/mL (≈ 0.396 µM)
inhibition of replication of HIV (HIV): weakly inhibit
EC50 (HIV-2CBL-20; [13]): 0.004 ± 0.0003 µg/mL (≈ 0.0115 µM)
inhibition of replication of equine anemia virus (equine anemia virus): weakly inhibit
CC50 at 3 days ([2]; PBMC (peripheral blood mononuclear cells), PHA-stimulated, PBMC, MTT, read-out: CC50): 0.0759 ± 0.0131 µg/mL (≈ 0.218 µM)
EC50 (HIV-1KM018; [14]): 0.0074 ± 0.0011 µg/mL (≈ 0.0212 µM)
EC50 (HIV-1IIIB; [15]): 0.0057 ± 0.0001 µg/mL (≈ 0.0164 µM)

CC[C@@]1(O)C(=O)OCc2c1cc1n(c2=O)Cc2cc3cc(O)ccc3nc2-1 [Compound 2, 10-hydroxycamptothecin]
EC50 (HIV-2ROD; [16]): 0.025 ± 0.0009 µg/mL (≈ 0.0686 µM)
CC50 at 3 days ([1]; C8166, MTT, 3 days, read-out: CC50): 0.141 ± 0.0097 µg/mL (≈ 0.387 µM)
EC50 (HIV-2CBL-20; [16]): 0.0132 ± 0.001 µg/mL (≈ 0.0362 µM)
CC50 at 3 days ([2]; PBMC, MTT, read-out: CC50): 0.0363 ± 0.0118 µg/mL (≈ 0.0996 µM)
EC50 (HIV-1KM018; Human immunodeficiency virus 1, PBMC, 168 h): 0.0105 ± 0.0004 µg/mL (≈ 0.0288 µM)
EC50 (HIV-1IIIB; Human immunodeficiency virus 1, C8166, 72 h): 0.0334 ± 0.0003 µg/mL (≈ 0.0917 µM)

CC[C@@]1(O)C(=O)OCc2c1cc1n(c2=O)Cc2c-1nc1ccccc1c2CO [Compound 3, 7-Hydroxymethylcamptothecin]
CC50 at 3 days [3]: 0.041 µg/mL (≈ 0.108 µM)
EC50 [4]: > 44.9 µM
inhibition of reverse transcriptase [4, 17]: no inhibition; also recorded: did not show any inhibition
EC50 (H9/HIV-1IIIB [5]): > 17 µg/mL
EC50 (HIV-2ROD; [12]): 0.0024 ± 0.0002 µg/mL (≈ 0.00634 µM)
CC50 at 3 days [1]: 0.159 ± 0.0137 µg/mL (≈ 0.419 µM)
EC50 (HIV-2CBL-20; [13]): 0.0005 ± 0.0001 µg/mL (≈ 0.00132 µM)
EC50 (HIV-1IIIB/H9; Human immunodeficiency virus 1, C8166 with HIV-1IIIB/H9, co-cultivation, 6 h): > 2 µg/mL
inhibition of viral cell-to-cell transmission (HIV-1IIIB/H9; in words): no inhibition
Kd (HIV-1 integrase): 64.9 µM
inhibition of integrase (HIV-1 integrase; [17]): no inhibition; also recorded: did not show any inhibition
EC50 (HIV-1 protease): > 106 µM
inhibition of protease (HIV-1 protease; [17]): no inhibition; also recorded: did not show any inhibition
CC50 at 3 days [2]: 0.06 ± 0.0101 µg/mL (≈ 0.159 µM)
EC50 (HIV-1KM018; [14]): 0.0009 ± 0.0001 µg/mL (≈ 0.00238 µM)
selective killing of chronically infected cells (H9/HIV-1IIIB compared with uninfected H9) (H9/HIV-1IIIB [6]): no selective killing
CC50 at 3 days [7]: 0.0157 µg/mL (≈ 0.0415 µM)
EC50 (HIV-1IIIB; [15]): 0.0008 ± 0.0002 µg/mL (≈ 0.00211 µM)

CC[C@@]1(O)C(=O)OCc2c1cc1n(c2=O)Cc2cc3c(CN(C)C)c(O)ccc3nc2-1 [Topotecan]
treatment of AIDS-related progressive multifocal leukoencephalopathy [8]: efficient

CC[C@@]1(O)C(=O)OCc2c1cc1n(c2=O)Cc2cc3c([N+](=O)[O-])cccc3nc2-1 [9-nitrocamptothecin (9NC), 9-nitrocamptothecin]
HIV-1 replication (HIV-1 [9]): reduced
tumor necrosis factor-mediated activation of HIV-1 (HIV-1 [10]): inhibited
inhibition of HIV-1 replication (HIV-1 [11]): showed inhibition

Cc1cn([C@H]2C[C@H](N=[N+]=[N-])[C@@H](CO)O2)c(=O)[nH]c1=O [AZT, reference compound]
CC50 (C8166): 1.12(mg/ml)
CC50 (PBMC): 0.45(mg/ml
EC50 (HIV-1KM018; PBMC, HIV-1KM018, p24, 7 days): 0.0024 ± 0.0003 µg/mL (≈ 0.00898 µM)
EC50 (HIV-1IIIB; C8166, HIV-1IIIB, syncytia, 3 days): 0.003 ± 0.0003 µg/mL (≈ 0.0112 µM)
